From patent US11912703B2, “6-azaindole compounds” (BRISTOL-MYERS SQUIBB COMPANY, priority 2017, dated 2024) come the findings set out here.

SMILES strings stand for the structures. Like-named read-outs stand apart in the source and are kept apart here.

For one test, the target named is human TLR7 (Homo sapiens (Human), UniProt Q9NYK1). The test can be described thus: TLR7 inhibition reporter assay (HEK-Blue SEAP). The class given is cell-based. The settings on record: HEK-Blue cells overexpressing human TLR7, gardiquimod 7.5 μM stimulation. A general note: Reporter assays use an easily measured gene product as a stand-in for the process of interest.
Sequence of human TLR7 (Q9NYK1 27-1049): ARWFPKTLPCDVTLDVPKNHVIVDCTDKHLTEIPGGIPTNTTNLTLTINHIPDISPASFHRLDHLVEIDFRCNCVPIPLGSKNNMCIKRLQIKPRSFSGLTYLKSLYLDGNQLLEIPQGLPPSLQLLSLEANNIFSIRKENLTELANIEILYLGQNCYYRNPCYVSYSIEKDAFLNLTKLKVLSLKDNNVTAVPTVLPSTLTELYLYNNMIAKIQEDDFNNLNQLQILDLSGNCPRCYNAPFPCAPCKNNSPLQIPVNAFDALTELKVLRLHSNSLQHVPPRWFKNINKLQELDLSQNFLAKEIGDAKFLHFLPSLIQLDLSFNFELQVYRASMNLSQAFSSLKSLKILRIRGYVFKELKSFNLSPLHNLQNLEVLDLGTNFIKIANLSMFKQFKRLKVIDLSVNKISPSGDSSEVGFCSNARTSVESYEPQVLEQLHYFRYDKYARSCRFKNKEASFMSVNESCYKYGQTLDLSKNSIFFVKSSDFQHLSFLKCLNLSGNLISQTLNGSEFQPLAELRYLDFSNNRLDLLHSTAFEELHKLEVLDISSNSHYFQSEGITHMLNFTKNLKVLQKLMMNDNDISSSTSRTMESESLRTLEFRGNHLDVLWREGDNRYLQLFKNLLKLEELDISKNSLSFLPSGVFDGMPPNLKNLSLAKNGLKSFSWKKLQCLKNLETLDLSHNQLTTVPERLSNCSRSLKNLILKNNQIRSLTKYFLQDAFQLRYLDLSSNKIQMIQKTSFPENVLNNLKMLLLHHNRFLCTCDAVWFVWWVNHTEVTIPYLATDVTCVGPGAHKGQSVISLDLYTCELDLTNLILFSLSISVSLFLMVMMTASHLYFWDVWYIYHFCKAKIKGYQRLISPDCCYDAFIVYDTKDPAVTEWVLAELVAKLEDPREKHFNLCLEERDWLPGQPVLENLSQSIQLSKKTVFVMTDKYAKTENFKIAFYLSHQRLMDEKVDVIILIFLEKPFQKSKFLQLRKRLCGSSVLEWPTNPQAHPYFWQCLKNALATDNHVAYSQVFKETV

For another test, the target named is human TLR8 (Homo sapiens (Human), UniProt Q9NR97). The test is described as follows: TLR8 inhibition reporter assay (HEK-Blue SEAP).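 Also: SEAP driven by IFN-β minimal promoter with five NF-κB and AP-1 sites, compounds tested 0.05 nM to 50 µM, 22 h incubation, inhibition relative to agonist plus DMSO wells.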
Sequence of human TLR8 (Q9NR97 27-1041): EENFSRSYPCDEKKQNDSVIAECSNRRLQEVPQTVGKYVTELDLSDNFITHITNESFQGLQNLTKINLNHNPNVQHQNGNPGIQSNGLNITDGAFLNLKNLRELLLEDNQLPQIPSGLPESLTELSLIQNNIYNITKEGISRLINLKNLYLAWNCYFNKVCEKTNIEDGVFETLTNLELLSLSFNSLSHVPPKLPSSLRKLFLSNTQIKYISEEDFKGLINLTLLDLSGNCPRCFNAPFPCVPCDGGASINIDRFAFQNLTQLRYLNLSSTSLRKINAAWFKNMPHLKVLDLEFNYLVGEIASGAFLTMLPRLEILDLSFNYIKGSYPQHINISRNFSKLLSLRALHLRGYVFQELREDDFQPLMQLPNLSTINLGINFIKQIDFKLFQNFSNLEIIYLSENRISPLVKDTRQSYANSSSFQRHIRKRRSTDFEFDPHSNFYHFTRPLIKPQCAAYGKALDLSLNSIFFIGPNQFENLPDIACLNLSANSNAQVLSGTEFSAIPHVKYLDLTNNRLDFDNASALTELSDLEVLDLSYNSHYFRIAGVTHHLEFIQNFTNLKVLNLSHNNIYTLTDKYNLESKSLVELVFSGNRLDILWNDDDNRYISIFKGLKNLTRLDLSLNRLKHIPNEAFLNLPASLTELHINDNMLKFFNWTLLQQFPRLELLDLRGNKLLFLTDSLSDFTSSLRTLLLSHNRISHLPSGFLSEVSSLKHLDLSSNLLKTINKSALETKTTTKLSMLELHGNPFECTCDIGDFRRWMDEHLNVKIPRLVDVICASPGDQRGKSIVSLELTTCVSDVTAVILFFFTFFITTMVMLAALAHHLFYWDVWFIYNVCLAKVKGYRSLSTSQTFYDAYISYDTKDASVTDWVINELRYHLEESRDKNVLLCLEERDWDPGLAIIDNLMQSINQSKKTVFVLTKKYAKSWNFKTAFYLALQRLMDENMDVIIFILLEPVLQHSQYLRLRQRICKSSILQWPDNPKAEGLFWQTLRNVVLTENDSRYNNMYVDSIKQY
The next test concerns the target human TLR9 (Homo sapiens (Human), UniProt Q9NR96). The test can be described thus: TLR9 inhibition reporter assay (HEK-Blue SEAP).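 Also: SEAP driven by IFN-β minimal promoter carrying five NF-κB and AP-1 sites, 22 h at 37 °C, compounds 0.05 nM–50 µM, inhibition scaled between agonist-plus-DMSO and reference-inhibitor wells.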
[1] abbreviates: read-out: TLR8 IC50; HEK-Blue cells overexpressing human TLR8, R848 15.9 μM stimulation, SEAP reporter.
Where [2] appears, read: read-out: TLR9 IC50; HEK-Blue cells overexpressing human TLR9, ODN2006 5 nM stimulation, SEAP reporter.
Where [3] appears, read: read-out: TLR8 IC50; HEK-Blue cells overexpressing human TLR8; R848 15.9 μM stimulation; SEAP reporter.
[4] abbreviates: read-out: TLR9 IC50; HEK-Blue cells overexpressing human TLR9; ODN2006 5 nM stimulation; SEAP reporter.

Sequence of human TLR9 (Q9NR96 26-1032): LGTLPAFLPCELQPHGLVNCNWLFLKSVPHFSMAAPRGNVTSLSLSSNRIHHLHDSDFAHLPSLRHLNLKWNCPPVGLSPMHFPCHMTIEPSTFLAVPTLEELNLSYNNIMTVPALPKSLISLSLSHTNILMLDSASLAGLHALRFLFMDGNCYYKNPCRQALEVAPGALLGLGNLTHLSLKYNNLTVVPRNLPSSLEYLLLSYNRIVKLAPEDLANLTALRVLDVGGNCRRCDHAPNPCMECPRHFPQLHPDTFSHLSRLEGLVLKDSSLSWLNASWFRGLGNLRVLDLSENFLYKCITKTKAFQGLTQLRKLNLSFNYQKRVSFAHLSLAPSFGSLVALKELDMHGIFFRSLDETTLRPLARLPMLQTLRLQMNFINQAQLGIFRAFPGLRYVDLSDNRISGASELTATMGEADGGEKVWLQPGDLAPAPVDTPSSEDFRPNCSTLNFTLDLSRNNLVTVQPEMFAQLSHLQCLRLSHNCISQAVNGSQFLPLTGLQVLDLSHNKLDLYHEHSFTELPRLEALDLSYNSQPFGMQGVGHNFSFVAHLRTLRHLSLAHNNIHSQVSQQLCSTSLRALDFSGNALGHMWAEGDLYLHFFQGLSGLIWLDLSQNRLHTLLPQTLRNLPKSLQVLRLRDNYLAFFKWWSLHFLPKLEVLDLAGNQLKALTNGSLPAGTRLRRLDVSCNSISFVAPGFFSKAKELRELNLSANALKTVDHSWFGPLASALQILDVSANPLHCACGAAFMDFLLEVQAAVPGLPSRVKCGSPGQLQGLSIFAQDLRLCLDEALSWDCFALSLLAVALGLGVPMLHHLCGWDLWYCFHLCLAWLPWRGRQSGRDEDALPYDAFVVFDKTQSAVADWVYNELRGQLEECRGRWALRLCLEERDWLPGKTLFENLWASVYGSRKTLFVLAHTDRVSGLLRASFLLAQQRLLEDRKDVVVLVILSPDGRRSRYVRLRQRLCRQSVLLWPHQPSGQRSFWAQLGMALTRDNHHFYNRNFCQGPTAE
Protocol for human TLR7: HEK-Blue™-cells (Invivogen) overexpressing human TLR7, TLR8 or TLR9 receptors were used for screening inhibitors of these receptors using an inducible SEAP (secreted embryonic alkaline phosphatase) reporter gene under the control of the IFN-β minimal promoter fused to five NF-κB and AP-1-binding sites. Briefly, cells are seeded into Greiner 384 well plates (15000 cells per well for TLR7, 20,000 for TLR8 and 25,000 for TLR9) and then treated with test compounds in DMSO to yield a final dose response concentration range of 0.05 nM-50 μM. After a 30 minute compound pre-treatment at room temperature, the cells are then stimulated with a TLR7 ligand (gardiquimod at a final concentration of 7.5 μM), TLR8 ligand (R848 at a final concentration of 15.9 μM) or TLR9 ligand (ODN2006 at a final concentration of 5 nM) to activate NF-κB and AP-1 which induce the production of SEAP. After a 22 hour incubation at 37° C., 500 CO2, SEAP levels are determined with the addition of HEK-Blue™ Detection reagent (Invivogen), a cell culture medium that allows for detection of SEAP, according to manufacturer's specifications.

Turning to `COc1cc(-c2[nH]c3cnc(N4CCN(C)C[C@H]4C)c(F)c3c2C(C)C)cn2ncnc12` [Example 436], the values for the IC50 on human TLR7, at human TLR8 (setting [1]) and at human TLR9 (setting [2]) were 1.8 nM, 5.1 nM and 10300 nM, respectively.

In the case of `CCCN1CCN(c2ncc3[nH]c(-c4cc(OC)c5ncnn5c4)c(C(C)C)c3c2F)[C@H](C)C1` [Example 437], the IC50 at human TLR7 worked out at 2.6 nM; against human TLR8, 6.4 nM; on human TLR9, 7670 nM.

Regarding `COc1cc(-c2[nH]c3cnc(N4CCN(C(=O)CN5CCOCC5)C[C@H]4C)c(F)c3c2C(C)C)cn2ncnc12` [Example 438], the IC50 is 25 nM against human TLR7, 13 nM at human TLR8 (setting [1]) and > 50000 nM on human TLR9 (setting [2]).

Turning to `COc1cc(-c2[nH]c3cnc(N4CCN(C(=O)CN(C)C)C[C@H]4C)c(F)c3c2C(C)C)cn2ncnc12` [Example 439], the IC50 against human TLR7 worked out at 7.1 nM; on human TLR8 (setting [1]), 4.3 nM; at human TLR9 (setting [2]), 11200 nM.

`COc1cc(-c2[nH]c3cnc(N4CCN(C5COC5)C[C@H]4C)c(F)c3c2C(C)C)cn2ncnc12` [Example 440]: the IC50 against human TLR7 was 11 nM; on human TLR8 (setting [1]), 62 nM; on human TLR9 (setting [2]) it was > 50000 nM.

For the compound `COc1cc(-c2[nH]c3cnc(N4CCN(C5CCC5)C[C@H]4C)c(F)c3c2C(C)C)cn2ncnc12` [Example 441], the values for the half-maximal inhibitory concentration (IC50) at human TLR7, at human TLR8 (setting [1]) and on human TLR9 (setting [2]) were 4 nM, 11 nM and 7320 nM, respectively.

Regarding `COc1cc(-c2[nH]c3cnc(N4CCN(CC5CC5)C[C@H]4C)c(F)c3c2C(C)C)cn2ncnc12` [Example 442], the results for the IC50 against human TLR7, on human TLR8 (setting [1]) and on human TLR9 (setting [2]) were 2.5 nM, 7.1 nM and 7490 nM, respectively.

Consider `COc1cc(-c2[nH]c3cnc(N4CCN(C(C)C)C[C@H]4C)c(F)c3c2C(C)C)cn2ncnc12` [Example 443], for which the IC50 against human TLR7 was 4 nM; at human TLR8 (setting [1]), 9.3 nM; at human TLR9 (setting [2]) it was 6550 nM.

With `COCCN1CCN(c2ncc3[nH]c(-c4cc(OC)c5ncnn5c4)c(C(C)C)c3c2F)[C@H](C)C1` [Example 444], the IC50 was found to be 5 nM on human TLR7, 6.7 nM at human TLR8 (setting [1]) and 19900 nM at human TLR9 (setting [2]).

Take `CNC(=O)CN1CCN(c2ncc3[nH]c(-c4cc(OC)c5ncnn5c4)c(C(C)C)c3c2F)[C@H](C)C1` [Example 445]: the figures for the IC50 at human TLR7, on human TLR8 (setting [1]) and on human TLR9 (setting [2]) were 13 nM, 25 nM and > 50000 nM, respectively.

With `COc1cc(-c2[nH]c3cnc(N4CCN(CC(=O)N(C)C)C[C@H]4C)c(F)c3c2C(C)C)cn2ncnc12` [Example 446], the IC50 at human TLR7 is 18 nM; on human TLR8 (setting [1]) it was 21 nM; at human TLR9 (setting [2]) it was > 50000 nM.

Turning to `COc1cc(-c2[nH]c3cnc(N4CCN(CC(N)=O)C[C@H]4C)c(F)c3c2C(C)C)cn2ncnc12` [Example 447], the IC50 is 11 nM on human TLR7, 32 nM at human TLR8 (setting [1]) and > 50000 nM on human TLR9 (setting [2]).

On to `COc1cc(-c2[nH]c3cnc(N4CCN(CC(=O)N5CCOCC5)C[C@H]4C)c(F)c3c2C(C)C)cn2ncnc12` [Example 448], for which the half-maximal inhibitory concentration (IC50) against human TLR7 is 28 nM; on human TLR8 (setting [1]), 22 nM; on human TLR9 (setting [2]) it was > 50000 nM.

Regarding `COc1cc(-c2[nH]c3cnc(N4CCN(CC(F)(F)F)C[C@H]4C)c(F)c3c2C(C)C)cn2ncnc12` [Example 449], the IC50 against human TLR7 was 37 nM; at human TLR8 (setting [1]), 171 nM; at human TLR9 (setting [2]), > 50000 nM.

Turning to `COc1cc(-c2[nH]c3cnc(N4CCN(CCS(C)(=O)=O)C[C@H]4C)c(F)c3c2C(C)C)cn2ncnc12` [Example 450], the values for the IC50 against human TLR7, on human TLR8 (setting [3]) and at human TLR9 (setting [4]) were 12 nM, 39 nM and > 50000 nM, respectively.

Consider `COc1cc(-c2[nH]c3cnc(N4CCN(C5CCN(C(C)C)CC5)C[C@H]4C)c(F)c3c2C(C)C)cn2ncnc12` [Example 451], for which the IC50 on human TLR7 stood at 2.6 nM; at human TLR8 (setting [3]), 5.7 nM; on human TLR9 (setting [4]), 792 nM.

For the compound `COc1cc(-c2[nH]c3cnc(N4CCN(C5CCOCC5)C[C@H]4C)c(F)c3c2C(C)C)cn2ncnc12` [Example 452], the IC50 amounted to 4.8 nM on human TLR7, 11 nM on human TLR8 (setting [3]) and 12600 nM on human TLR9 (setting [4]).

For `COc1cc(-c2[nH]c3cnc(N4CCN(CC(C)C)C[C@H]4C)c(F)c3c2C(C)C)cn2ncnc12` [Example 453], the IC50 at human TLR7 is 16 nM; at human TLR8 (setting [3]), 34 nM; on human TLR9 (setting [4]) it was > 50000 nM.

On to `Cc1c(-c2[nH]c3cnc(N4CCN(C)C[C@H]4C)c(F)c3c2C(C)C)cn2ncnc2c1C` [Example 454], for which the half-maximal inhibitory concentration (IC50) at human TLR7 is 0.05 nM; at human TLR8 (setting [3]), 0.05 nM; at human TLR9 (setting [4]), 10900 nM.

For the compound `CCCN1CCN(c2ncc3[nH]c(-c4cn5ncnc5c(C)c4C)c(C(C)C)c3c2F)[C@H](C)C1` [Example 455], the IC50 came out at 0.59 nM against human TLR7, 0.17 nM at human TLR8 (setting [3]) and 14600 nM on human TLR9 (setting [4]).

Consider `Cc1c(-c2[nH]c3cnc(N4CCN(C5CCOCC5)C[C@H]4C)c(F)c3c2C(C)C)cn2ncnc2c1C` [Example 456], for which the values for the 50% inhibitory concentration (IC50) on human TLR7, on human TLR8 (setting [3]) and at human TLR9 (setting [4]) were 5.7 nM, 1.6 nM and 16300 nM, respectively.

Regarding `Cc1c(-c2[nH]c3cnc(N4CCN(C5COC5)C[C@H]4C)c(F)c3c2C(C)C)cn2ncnc2c1C` [Example 457], the figures for the IC50 against human TLR7, at human TLR8 (setting [3]) and on human TLR9 (setting [4]) were 3.2 nM, 2.5 nM and 22000 nM, respectively.

For `Cc1c(-c2[nH]c3cnc(N4CCN(C5CCC5)C[C@H]4C)c(F)c3c2C(C)C)cn2ncnc2c1C` [Example 458], the values for the IC50 against human TLR7, at human TLR8 (setting [3]) and at human TLR9 (setting [4]) were 2.5 nM, 1.2 nM and 16800 nM, respectively.

As for `Cc1c(-c2[nH]c3cnc(N4CCN(CC5CC5)C[C@H]4C)c(F)c3c2C(C)C)cn2ncnc2c1C` [Example 459], the concentration for half-maximal inhibition (IC50) against human TLR7 turned out to be 1.6 nM; on human TLR8 (setting [3]) it was 0.54 nM; at human TLR9 (setting [4]) it was 13800 nM.

For the compound `Cc1c(-c2[nH]c3cnc(N4CCN(CC(C)C)C[C@H]4C)c(F)c3c2C(C)C)cn2ncnc2c1C` [Example 460], the IC50 on human TLR7 is 10 nM; at human TLR8 (setting [3]), 4.4 nM; on human TLR9 (setting [4]) it was > 50000 nM.

On to `Cc1c(-c2[nH]c3cnc(N4CCN(C(C)C)C[C@H]4C)c(F)c3c2C(C)C)cn2ncnc2c1C` [Example 461], for which the IC50 was 5.4 nM on human TLR7, 1.5 nM at human TLR8 (setting [3]) and 9020 nM on human TLR9 (setting [4]).

Consider `Cc1c(-c2[nH]c3cnc(N4CCN(C5CCN(C(C)C)CC5)C[C@H]4C)c(F)c3c2C(C)C)cn2ncnc2c1C` [Example 462], for which the IC50 on human TLR7 is 1.1 nM; at human TLR8 (setting [3]), 1.5 nM; on human TLR9 (setting [4]), 1970 nM.

Consider `Cc1c(-c2[nH]c3cnc(N4CCN(CCS(C)(=O)=O)C[C@H]4C)c(F)c3c2C(C)C)cn2ncnc2c1C` [Example 463], for which the results for the half-maximal inhibitory concentration (IC50) at human TLR7, on human TLR8 (setting [3]) and at human TLR9 (setting [4]) were 9 nM, 5.2 nM and 38800 nM, respectively.

For `Cc1c(-c2[nH]c3cnc(N4CCN(CC(N)=O)C[C@H]4C)c(F)c3c2C(C)C)cn2ncnc2c1C` [Example 464], the IC50 stood at 7.3 nM on human TLR7, 2.6 nM at human TLR8 (setting [3]) and 44000 nM on human TLR9 (setting [4]).

Consider `CNC(=O)CN1CCN(c2ncc3[nH]c(-c4cn5ncnc5c(C)c4C)c(C(C)C)c3c2F)[C@H](C)C1` [Example 465], for which the IC50 against human TLR7 was 8.5 nM; on human TLR8 (setting [3]), 3.1 nM; on human TLR9 (setting [4]) it was 47900 nM.

Consider `Cc1c(-c2[nH]c3cnc(N4CCN(CC(=O)N(C)C)C[C@H]4C)c(F)c3c2C(C)C)cn2ncnc2c1C` [Example 466], for which the IC50 worked out at 16 nM on human TLR7, 2.5 nM on human TLR8 (setting [3]) and 47500 nM on human TLR9 (setting [4]).

As usually defined, the IC50 is the concentration that inhibits the measured activity by half.
